Experimental data reported in patent US10273487B2, “Transfection vector for pathogenic amoebae and uses thereof” (priority 2017, dated 2019).
In brackets after ≈: the same amount, converted by molar mass. Read-outs that look alike come from different tables or passages of the source.

Assays:
N. fowleri [1] = experiment: MTS viability assays in N. fowleri; design: IC50 Value / IC90 Value: unit not given beside the values; conditions: for IC50 Value / IC90 Value / IC95 Value: MTS viability assay, N. fowleri, Table 1, unit not given
N. fowleri [2] = experiment: Preliminary experiments on natural resistance of N. fowleri to selection marker
Source text: Five different selection markers were screened for their suitability to use in an N. fowleri transfection system. […] Hygromycin was used in subsequent studies as the selectable marker, partly due to its easy use in other eukaryotic transfection systems.

Compound | IC50 Value (N. fowleri [1]) | IC90 Value (N. fowleri [1]) | IC95 Value (N. fowleri [1]) | resistance of N. fowleri to the selection marker (N. fowleri [2]) | IC50 (N. fowleri [1]; Naegleria fowleri, read-out: IC50 Value) | IC50 (N. fowleri [1]; Naegleria fowleri, read-out: IC50 values) | IC90 (N. fowleri [1]; Naegleria fowleri, read-out: IC90 Value)
nourseothricin | 26.5 | 165.4 | 218.7 | – | – | – | –
neomycin | 681.1 | 2385.3 | 3078.4 | natural resistance | – | – | –
COc1ccc(C[C@H](N)C(=O)N[C@H]2[C@@H](O)[C@H](n3cnc4c(N(C)C)ncnc43)O[C@@H]2CO)cc1 [puromycin] | – | – | 1.91 | – | 0.58 µg/mL (≈ 1.23 µM) | 0.6 µg/mL (≈ 1.27 µM) | 1.49 µg/mL (≈ 3.16 µM)
bleomycin | 0.49 | 1.62 | 2.10 | – | – | – | –
